Broadly, the Dmax is the largest share of the target that was removed. Usually DC50 stands for the midpoint of the concentration-degradation curve.

Like-named read-outs stand apart in the source and are kept apart here. A value given as a limit tells only on which side of the number the result lay.

The record followed here is US20230248834A1, “DEGRADATION OF (EGFR) BY CONJUGATION OF EGFR INHIBITORS WITH E3 LIGASE LIGAND AND METHODS OF USE” (BEIGENE, LTD., priority 2020, published 2023).

Assay type in all cases: cell-based
For one experiment, the system named is EGFR Del19/T790M/C797S. As to the kind of experiment: EGFR degradation HTRF assay in H1975-clone #28 (H1975 #28 DTC). The note with it: H1975-clone #28 (Del19/T790M/C797S), maximum percentage of inhibition (degradation). The procedure:
(§1) Cell Line Generation H1975-clone #28(Del19/T790M/C797S) and H1975-clone #23(Del19/C797S). EGFR-Del19/T790M/C797S and EGFR-Del19/C797S were stably expressed in H1975 cell lines by lentivirus-mediated over-expression, respectively. The EGFR over-expressed cells then underwent gene knockout, in which the EGFR targeting sgRNA was designed to only target the endogenous EGFR copies and preserve the exogenous EGFR copies. Followed by the gene knockout, the edited H1975 cells were seeded in 96 well plates at the concentration of 1 cell/well, cultured for about 2 weeks to allow single clones formation. The formed clones were screened by DNA sequencing and whole exon sequencing analysis for the desired edition. H1975-clone #28 and H1975-clone #23 were finally confirmed as homozygous Del19/T790M/C797S EGFR and Del19/C797S EGFR clones, respectively.
(§2) After 16 h treatment, add HTRF lysis buffer to each well; seal the plate and incubate 1 hour at room temperature on a plate shaker; Once the cells are lysed, 16 μL of cell lysate are transferred to a PE 384-well HTRF detection plate; 4 μL of pre-mixed HTRF antibodies are added to each well; Cover the plate with a plate sealer, spin 1000 rpm for 1 min, Incubate overnight at room temperature; Read on BMG PheraStar with HTRF protocol (337 nm-665 nm-620 nm).
(§3) The inhibition (degradation) percentage of the compound was calculated by the following equation: Inhibition percentage of Compound=100−100×(Signal−low control)/(High control−low control), wherein signal=each test compound group
(§4) High control=Cell group with added DMSO and without compound, indicating microplate readings without EGFR degradation;
(§5) Dmax is the maximum percentage of inhibition (degradation).
(§6) The IC50 (DC50) value of a compound can be obtained by fitting the following equation
(§7) Y=Bottom+(TOP−Bottom)/(1+((IC50/X)^hillslope))
Wherein, X and Y are known values, and IC50, Hillslope, Top and Bottom are the parameters obtained by fitting with software. […]

The target in a further experiment is T1, EGFR L858R/C797S (Homo sapiens, UniProt P00533, C797S/L858R).
T1 construct: expressed in transfected cells; host or cells: BaF3 LC
As to the kind of experiment: EGFR degradation HTRF assay in BaF3 LC cells. The note with it: for DC50: 16 h treatment, HTRF. The method in brief: (§8)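 BaF3 cells expressing EGFR L858R/C797S or L858R/T790M/C797S treated 16 h at 37 °C with compounds (top 10 uM, 5-fold, 8 doses; 0.2% DMSO). Remaining EGFR quantified by HTRF in lysates after overnight antibody incubation. Degradation percentage versus DMSO controls; DC50 from four-parameter fit, Dmax as maximal degradation.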
(In TR-FRET formats the signal depends on donor and acceptor labels being close together.)

For the next experiment, the target named is T2, EGFR L858R/T790M/C797S (Homo sapiens, UniProt P00533, C797S/L858R/T790M).
T2 construct: expressed in transfected cells; host or cells: BaF3-LTC
Kind of experiment: EGFR degradation HTRF assay in BaF3-LTC cells. The note with it: for Dmax: read-out: BaF3-LTC Dmax (%). In a few lines: as §8

The next experiment concerns EGFR Del19/C797S. As to the kind of experiment: EGFR degradation HTRF assay in H1975-clone #23 (H1975 #23 DC). As to conditions: H1975-clone #23 (Del19/C797S); for DC50: 16 h treatment, HTRF; for H1975 #23 DC Dmax (%): maximum percentage of inhibition (degradation). The procedure: as §1, §2, §3, §4, §5, §6, §7
Wherein, X and Y are known values, and IC50, Hillslope, Top and Bottom are the parameters obtained by fitting with software. Y is the inhibition percentage (calculated from the equation), X is the concentration of the compound; IC50 is the concentration of the compound when the 50% inhibition is reached. The smaller the IC50 value is, the stronger the inhibitory ability of the compound is. Vice versa, the higher the IC50 value is, the weaker the inhibitory ability of the compound is; Hillslope represents the slope of the fitted curve, generally around 1*; Bottom represents the minimum value of the curve obtained by data fitting, which is generally 0%±20%; Top represents the maximum value of the curve obtained by data fitting, which is generally 100%±20%. The experimental data were fitted by calculating and analyzing with Dotmatics data analysis software.

Setting [1] is: BaF3 LC (L858R/C797S), maximum percentage of inhibition (degradation), read-out: BaF3 LC Dmax (%).
The mark [2] stands for this setting: BaF3-LTC (L858R/T790M/C797S), maximum percentage of inhibition (degradation).

T1 sequence (P00533 25-1210 C797S/L858R): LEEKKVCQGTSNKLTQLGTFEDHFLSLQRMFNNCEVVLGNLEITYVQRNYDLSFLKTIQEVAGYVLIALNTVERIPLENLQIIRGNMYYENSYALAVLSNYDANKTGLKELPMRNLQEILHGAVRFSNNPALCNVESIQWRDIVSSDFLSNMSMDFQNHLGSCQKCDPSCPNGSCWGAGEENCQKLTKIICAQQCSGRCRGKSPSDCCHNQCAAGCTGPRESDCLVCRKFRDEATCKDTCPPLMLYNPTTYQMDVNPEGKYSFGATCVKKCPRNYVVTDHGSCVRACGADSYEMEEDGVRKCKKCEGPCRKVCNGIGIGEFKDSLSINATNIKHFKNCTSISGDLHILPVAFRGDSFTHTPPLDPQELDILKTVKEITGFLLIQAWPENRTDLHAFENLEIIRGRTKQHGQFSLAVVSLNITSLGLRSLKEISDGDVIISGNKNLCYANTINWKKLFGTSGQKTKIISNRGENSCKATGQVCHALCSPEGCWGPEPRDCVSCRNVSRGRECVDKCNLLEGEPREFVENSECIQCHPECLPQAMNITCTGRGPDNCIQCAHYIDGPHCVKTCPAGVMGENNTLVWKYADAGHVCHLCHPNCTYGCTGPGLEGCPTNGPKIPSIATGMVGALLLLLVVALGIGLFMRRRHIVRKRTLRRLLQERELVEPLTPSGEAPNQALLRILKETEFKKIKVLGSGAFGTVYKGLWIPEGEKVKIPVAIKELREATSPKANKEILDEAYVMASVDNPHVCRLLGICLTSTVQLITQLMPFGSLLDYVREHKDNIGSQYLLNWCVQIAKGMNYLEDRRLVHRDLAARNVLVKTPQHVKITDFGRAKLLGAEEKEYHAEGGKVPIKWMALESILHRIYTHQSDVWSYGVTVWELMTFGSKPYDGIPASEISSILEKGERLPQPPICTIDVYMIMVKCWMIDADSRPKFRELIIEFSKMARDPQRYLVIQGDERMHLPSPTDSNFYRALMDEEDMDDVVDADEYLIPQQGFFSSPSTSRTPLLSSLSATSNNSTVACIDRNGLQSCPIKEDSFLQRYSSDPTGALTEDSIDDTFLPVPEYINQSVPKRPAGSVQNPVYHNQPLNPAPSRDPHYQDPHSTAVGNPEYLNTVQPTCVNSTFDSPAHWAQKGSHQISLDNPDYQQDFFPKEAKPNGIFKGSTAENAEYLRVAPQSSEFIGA
T2 sequence (P00533 25-1210 T790M/C797S/L858R): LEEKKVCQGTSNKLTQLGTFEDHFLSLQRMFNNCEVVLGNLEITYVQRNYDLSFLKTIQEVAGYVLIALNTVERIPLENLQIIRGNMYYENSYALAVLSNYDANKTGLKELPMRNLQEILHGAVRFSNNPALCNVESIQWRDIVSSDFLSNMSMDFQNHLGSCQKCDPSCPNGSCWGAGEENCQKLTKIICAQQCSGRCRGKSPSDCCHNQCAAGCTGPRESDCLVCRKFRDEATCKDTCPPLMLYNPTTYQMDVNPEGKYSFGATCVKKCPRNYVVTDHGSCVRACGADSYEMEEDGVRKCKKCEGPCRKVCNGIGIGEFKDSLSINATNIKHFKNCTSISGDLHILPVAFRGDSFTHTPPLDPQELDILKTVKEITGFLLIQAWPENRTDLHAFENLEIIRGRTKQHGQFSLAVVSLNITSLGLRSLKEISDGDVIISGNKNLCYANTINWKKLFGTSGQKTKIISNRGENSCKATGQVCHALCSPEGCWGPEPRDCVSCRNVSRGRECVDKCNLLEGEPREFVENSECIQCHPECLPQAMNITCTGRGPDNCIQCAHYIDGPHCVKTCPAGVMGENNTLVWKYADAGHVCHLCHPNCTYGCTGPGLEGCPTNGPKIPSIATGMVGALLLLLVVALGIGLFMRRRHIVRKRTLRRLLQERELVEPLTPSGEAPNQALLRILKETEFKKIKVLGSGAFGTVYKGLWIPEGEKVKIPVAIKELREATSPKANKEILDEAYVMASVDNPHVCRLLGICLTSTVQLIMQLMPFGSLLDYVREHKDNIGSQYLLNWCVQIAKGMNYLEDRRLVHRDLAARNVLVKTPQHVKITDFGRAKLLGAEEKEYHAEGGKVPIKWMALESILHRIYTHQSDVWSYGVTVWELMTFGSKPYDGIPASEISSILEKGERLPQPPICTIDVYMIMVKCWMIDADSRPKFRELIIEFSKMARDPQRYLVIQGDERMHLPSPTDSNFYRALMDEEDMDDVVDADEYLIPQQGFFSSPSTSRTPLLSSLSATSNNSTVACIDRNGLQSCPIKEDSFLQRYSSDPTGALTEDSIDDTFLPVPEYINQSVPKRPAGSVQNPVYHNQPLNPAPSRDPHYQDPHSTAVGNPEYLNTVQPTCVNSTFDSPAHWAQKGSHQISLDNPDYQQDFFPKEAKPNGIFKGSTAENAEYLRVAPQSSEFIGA

As to `CCc1ncc2c(P(C)(C)=O)c(Nc3nc(Nc4cc(CC)c(N5CCC(N6CCN(CCc7ccc8c(c7)oc(=O)n8C7CCC(=O)NC7=O)CC6)CC5)cc4OC)ncc3Br)ccc2n1` (stereo not shown) [Example 499, 3-(6-(2-(4-(1-(4-((5-bromo-4-((5-(dimethylphosphoryl)-2-ethylquinazolin-6-yl)amino)pyrimidin-2-yl)amino)-2-ethyl-5-methoxyphenyl)piperidin-4-yl)piperazin-1-yl)ethyl)-2-oxobenzo[d]oxazol-3(2H)-yl)piperidine-2,6-dione], in the experiment with EGFR Del19/T790M/C797S, the “H1975 # 28 DTC Dmax (%)” value came to 77.41%. Moreover, the Dmax at EGFR L858R/C797S (BaF3, read-out: BaF3 LC Dmax (%)) came out at 91%; on EGFR L858R/T790M/C797S it was 87.8%.
Regarding `CCOc1cc(N2CCC(N3CCN(CCc4cccc5c4oc(=O)n5C4CCC(=O)NC4=O)CC3)CC2)c(CC)cc1Nc1ncc(Br)c(Nc2ccc3nc(CC)ncc3c2P(C)(C)=O)n1` (stereo not shown) [Example 563, 3-(7-(2-(4-(1-(4-((5-bromo-4-((5-(dimethylphosphoryl)-2-ethylquinazolin-6-yl)amino)pyrimidin-2-yl)amino)-5-ethoxy-2-ethylphenyl)piperidin-4-yl)piperazin-1-yl)ethyl)-2-oxobenzo[d]oxazol-3(2H)-yl)piperidine-2,6-dione], the “H1975 # 28 DTC Dmax (%)” value in the experiment with EGFR Del19/T790M/C797S was determined as 81.88%. Besides, the maximal degradation (Dmax) at EGFR L858R/T790M/C797S was determined as 92.6%.
With `CCc1cc(Nc2ncc(Br)c(Nc3ccc4nc(C)ccc4c3P(C)(C)=O)n2)c(OC2CC2)cc1N1CCC(N2CCN(CCc3cc(F)c([C@H]4CCC(=O)NC4=O)c(F)c3)CC2)CC1` [Example 459, (R)-3-(4-(2-(4-(1-(4-((5-bromo-4-((5-(dimethylphosphoryl)-2-methylquinolin-6-yl)amino)pyrimidin-2-yl)amino)-5-cyclopropoxy-2-ethylphenyl)piperidin-4-yl)piperazin-1-yl)ethyl)-2,6-difluorophenyl)piperidine-2,6-dione], the half-maximal degradation concentration (DC50) on EGFR L858R/C797S (BaF3 LC (L858R/C797S)) is 20.7 nM; on EGFR L858R/T790M/C797S (BaF3-LTC (L858R/T790M/C797S), 16 h treatment, HTRF), 7.54 nM; in the experiment on EGFR Del19/C797S it was 6.01 nM. The Dmax at EGFR L858R/C797S (setting [1]) amounted to 76.6%; on EGFR L858R/T790M/C797S (setting [2]), 86.9%. Further, the “H1975 #23 DC Dmax (%)” value with EGFR Del19/C797S was 91.45%.
In the case of `COc1cc(N2CCC3(CCN(CCCCCOc4cccc5c4CN(C4CCC(=O)NC4=O)C5=O)CC3)CC2)c(C)cc1Nc1ncc(Br)c(Nc2ccc3nccnc3c2P(C)(C)=O)n1` (stereo not shown) [Example 542, 3-(4-((5-(9-(4-((5-bromo-4-((5-(dimethylphosphoryl)quinoxalin-6-yl)amino)pyrimidin-2-yl)amino)-5-methoxy-2-methylphenyl)-3,9-diazaspiro[5.5]undecan-3-yl)pentyl)oxy)-1-oxoisoindolin-2-yl)piperidine-2,6-dione], the results for the half-maximal degradation concentration (DC50) at EGFR L858R/C797S (BaF3 LC (L858R/C797S)) and in the experiment with EGFR Del19/C797S were 16.2 nM and more than 10000 nM, respectively. The Dmax at EGFR L858R/C797S (setting [1]) turned out to be 90%; on EGFR L858R/T790M/C797S (setting [2]) it was 95.6%. For the same molecule, the “H1975 #23 DC Dmax (%)” value in the experiment with EGFR Del19/C797S was determined as 31.04%.
Take `CCOc1cc(N2CCC(N3CCN(CC4CN(c5cccc6c5oc(=O)n6C5CCC(=O)NC5=O)C4)CC3)CC2)c(CC)cc1Nc1ncc(Br)c(Nc2ccc3nc(CC)ncc3c2P(C)(C)=O)n1` (stereo not shown) [Example 566, 3-(7-(3-((4-(1-(4-((5-bromo-4-((5-(dimethylphosphoryl)-2-ethylquinazolin-6-yl)amino)pyrimidin-2-yl)amino)-5-ethoxy-2-ethylphenyl)piperidin-4-yl)piperazin-1-yl)methyl)azetidin-1-yl)-2-oxobenzol[d]oxazol-3(2H)-yl)piperidine-2,6-dione]: the “H1975 # 28 DTC Dmax (%)” value in the experiment on EGFR Del19/T790M/C797S is reported as 84.02%. Moreover, the Dmax at EGFR L858R/T790M/C797S came out at 93.9%.
Regarding `CCOc1cc(N2CCC(N3CCN(CCc4cccc5c4n(CC)c(=O)n5C4CCC(=O)NC4=O)CC3)CC2)c(CC)cc1Nc1ncc(Br)c(Nc2ccc3nc(CC)ccc3c2P(C)(C)=O)n1` (stereo not shown) [Example 504, 3-(4-(2-(4-(1-(4-((5-bromo-4-((5-(dimethylphosphoryl)-2-ethylquinolin-6-yl)amino)pyrimidin-2-yl)amino)-5-ethoxy-2-ethylphenyl)piperidin-4-yl)piperazin-1-yl)ethyl)-3-ethyl-2-oxo-2,3-dihydro-1H-benzo[d]imidazol-1-yl)piperidine-2,6-dione], the greatest degradation seen (Dmax) was 86% at EGFR L858R/C797S (setting [1]) and 89% at EGFR L858R/T790M/C797S (setting [2]).
`CCOc1cc(N2CCC(N3CCN(CCc4cccc5c4C4(CC4)C(=O)N5C4CCC(=O)NC4=O)CC3)CC2)c(CC)cc1Nc1ncc(Br)c(Nc2ccc3nc(CC)ccc3c2P(C)(C)=O)n1` (stereo not shown) [Example 571, 3-(4′-(2-(4-(1-(4-((5-bromo-4-((5-(dimethylphosphoryl)-2-ethylquinolin-6-yl)amino)pyrimidin-2-yl)amino)-5-ethoxy-2-ethylphenyl)piperidin-4-yl)piperazin-1-yl)ethyl)-2′-oxospiro[cyclopropane-1,3′-indolin]-1′-yl)piperidine-2,6-dione]: the Dmax at EGFR L858R/C797S (setting [1]) was found to be 87.7%; on EGFR L858R/T790M/C797S (setting [2]) it was 93.2%.
For `CCc1ccc2c(P(C)(C)=O)c(Nc3nc(Nc4cc(CC)c(N5CCC(N6CCN(C(=O)[C@@H]7CCN(c8cc(F)c([C@H]9CCC(=O)NC9=O)c(F)c8)C7)CC6)CC5)cc4OC)ncc3Br)ccc2n1` [Example 489, (R)-3-(4-((R)-3-(4-(1-(4-((5-bromo-4-((5-(dimethylphosphoryl)-2-ethylquinolin-6-yl)amino)pyrimidin-2-yl)amino)-2-ethyl-5-methoxyphenyl)piperidin-4-yl)piperazine-1-carbonyl)pyrrolidin-1-yl)-2,6-difluorophenyl)piperidine-2,6-dione], in that order: 86.6% and 98.6%.
In the case of `CCOc1cc(N2CCC(N3CCN(CCc4cc(F)c([C@H]5CCC(=O)NC5=O)c(F)c4)CC3)CC2)c(CC)cc1Nc1ncc(Br)c(Nc2ccc3nc(CC)ncc3c2P(C)(C)=O)n1` [Example 460, (R)-3-(4-(2-(4-(1-(4-((5-bromo-4-((5-(dimethylphosphoryl)-2-ethylquinazolin-6-yl)amino)pyrimidin-2-yl)amino)-5-ethoxy-2-ethylphenyl)piperidin-4-yl)piperazin-1-yl)ethyl)-2,6-difluorophenyl)piperidine-2,6-dione], the Dmax on EGFR L858R/C797S (setting [1]) is 88.2%; on EGFR L858R/T790M/C797S (setting [2]), 82.5%.
On to `CCOc1cc(N2CCC(N3CCN(CCc4cccc5c4n(CC)c(=O)n5C4CCC(=O)NC4=O)CC3)CC2)c(CC)cc1Nc1ncc(Br)c(Nc2cc(F)c3nc(CC)ccc3c2P(C)(C)=O)n1` (stereo not shown) [Example 643, 3-(4-(2-(4-(1-(4-((5-bromo-4-((5-(dimethylphosphoryl)-2-ethyl-8-fluoroquinolin-6-yl)amino)pyrimidin-2-yl)amino)-5-ethoxy-2-ethylphenyl)piperidin-4-yl)piperazin-1-yl)ethyl)-3-ethyl-2-oxo-2,3-dihydro-1H-benzo[d]imidazol-1-yl)piperidine-2,6-dione], for which the Dmax on EGFR L858R/C797S (setting [1]) amounted to 94.1%; at EGFR L858R/T790M/C797S (setting [2]), 91.2%.
